Results: patent US20210221890A1, “COMBINATION OF BETA-ADRENERGIC RECEPTOR ANTAGONISTS AND CHECK POINT INHIBITORS FOR IMPROVED EFFICACY AGAINST CANCER” (Health Research, Inc., priority 2015, published 2021)

Key:
4T1 breast cancer model = 4T1 breast cancer model tumor growth in BALB/c mice; assay type: in vivo; conditions: 4T1 in BALB/c mice; propranolol started three days before anti-PD-1
[1] = tested on: murine pancreatic tumor (Pan02); experiment: Pan02 pancreatic tumor growth in C57BL/6 mice; assay type: in vivo
Experimental: To obtain the data presented in FIG. 1, a murine pancreatic tumor (Pan02) was engrafted in C57BL/6 mice. When tumors reached an average size of 50-100 mm^3, tumor bearing mice were assigned to one of four experimental groups and treatment was initiated. Groups of mice received: (1) saline (control), (2) anti-PD-1 antibody (BIO X CELL®, 200 μg/dose every 3 days), (3) the β-adrenergic signaling antagonist propranolol (10 mg/kg daily by intraperitoneal injection) or (4) combination therapy. Tumor growth was monitored and graphed as relative tumor volume compared to each tumor's starting volume. […] The data accordingly indicate that the combination therapy can be effective against pancreatic tumors that are resistant to treatment with the checkpoint inhibitor alone.

What does the source list for `CC(C)NCC(O)COc1cccc2ccccc12` (stereo not drawn) [propranolol]?
tumor growth (absolute and relative tumor volume) (4T1 breast cancer model): neither propranolol nor anti-PD-1 mAb alone has any impact on tumor growth; tumor growth (relative tumor volume compared to starting volume) ([1]; Pan02 in C57BL/6 mice, anti-PD-1 200 μg/dose every 3 days, propranolol 10 mg/kg daily i.p., Students t-test): neither anti-PD-1 nor propranolol alone caused a statistically significant decrease in tumor growth; efficacy of anti-PD-1 checkpoint inhibition ([1]; propranolol added to anti-PD-1, Pan02 tumors in C57BL/6 mice, p<0.05): significantly improved the efficacy of anti-PD-1 checkpoint inhibition
